According to patent publication US20100099561A1, “HETEROBICYCLIC ALKYLTHIO-BRIDGED ISOXAZOLINES” (E.I. DU PONT DE NEMOURS AND COMPANY, priority 2008, published 2010):

Legend:
Assay type in all cases: in vivo
[1] = tested on: pigweed (Amaranthus retroflexus); test: Test A preemergence, pigweed; conditions: 0 to 100 scale (0 no effect, 100 complete control)
Summary of the method: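 Ratings of 0–100 (0 no effect, 100 complete control) came from visual comparison with untreated controls after roughly ten days in a greenhouse. Plants in loam soil–sand blend were treated with compound in non-phytotoxic solvent plus surfactant, pre- or postemergence (one- to two-leaf stage).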

[2] = tested on: yellow nutsedge (Cyperus esculentus); test: Test B preemergence, yellow nutsedge; conditions: scale 0 to 100
Description: (§1) Seeds of plant species selected from blackgrass (Alopecurus myosuroides), downy bromegrass (Bromus tectorum), green foxtail (Setaria viridis), Italian ryegrass (Lolium multiflorum), wheat (Triticum aestivum), wild oat (Avena fatua), catchweed bedstraw (Galium aparine), bermudagrass (Cynodon dactylon), Surinam grass (Brachiaria decumbens), cocklebur (Xanthium strumarium), corn (Zea mays), large crabgrass (Digitaria sanguinalis), woolly cupgrass (Eriochloa villosa), giant foxtail (Setaria faberii), goosegrass (Eleusine indica), johnsongrass (Sorghum halepense), kochia (Kochia scoparia), lambsquarters (Chenopodium album), morningglory (Ipomoea coccinea), nightshade (eastern black nightshade, Solanum ptycanthum), yellow nutsedge (Cyperus esculentus), pigweed (Amaranthus retroflexus), ragweed (common ragweed, Ambrosia elatior), soybean (Glycine max), sunflower (common oilseed sunflower, Helianthus annuus), Russian thistle (Salsola kali), and velvetleaf (Abutilon theophrasti) were planted into a blend of loam soil and sand and treated preemergence with test compounds formulated in a non-phytotoxic solvent mixture which included a surfactant. Treated plants and controls were maintained in a greenhouse for 13 to 15 days, after which time all species were compared to controls and visually evaluated. Plant response ratings, summarized in Table B, are based on a scale of 0 to 100 where 0 is no effect and 100 is complete control. A dash (-) response means no test result.

[3] = tested on: wheat (Triticum aestivum); test: Test B preemergence, wheat; conditions: Preemergence, scale 0 to 100
Description: as §1

[4] = tested on: catchweed bedstraw (Galium aparine); test: Test B preemergence, catchweed bedstraw; conditions: scale 0 to 100
Description: as §1

[5] = tested on: kochia (Kochia scoparia); test: Test B preemergence, kochia; conditions: scale 0 to 100
Description: as §1

[6] = tested on: Russian thistle (Salsola kali); test: Test B preemergence, Russian thistle; conditions: scale 0 to 100
Description: as §1

Row | Structure (SMILES) | Plant response rating, Pigweed ([1]; 125 g ai/ha) | Plant response rating, Pigweed ([1]; 500 g ai/ha) | Plant response rating, Nutsedge, Yellow ([2]; 16 g ai/ha) | Plant response rating, Nutsedge, Yellow ([2]; 31 g ai/ha) | Plant response rating, Nutsedge, Yellow ([2]; 62 g ai/ha) | Plant response rating, Wheat ([3]; 16 g ai/ha) | Plant response rating, Wheat ([3]; 31 g ai/ha) | Plant response rating, Wheat ([3]; 62 g ai/ha) | Plant response rating, Galium ([4]; 16 g ai/ha) | Plant response rating, Galium ([4]; 31 g ai/ha) | Plant response rating, Galium ([4]; 62 g ai/ha) | Plant response rating, Kochia ([5]; 16 g ai/ha) | Plant response rating, Kochia ([5]; 31 g ai/ha) | Plant response rating, Kochia ([5]; 62 g ai/ha) | Plant response rating, Russian Thistle ([6]; 31 g ai/ha) | Plant response rating, Russian Thistle ([6]; 62 g ai/ha) | Plant response rating, Nutsedge, Yellow ([2]; 125 g ai/ha) | Plant response rating, Wheat ([3]; 125 g ai/ha) | Plant response rating, Galium ([4]; 125 g ai/ha) | Plant response rating, Kochia ([5]; 125 g ai/ha) | further results
1 | CC1(C)CC(S(=O)(=O)Cc2c(C(F)(F)F)nc3n(c2=O)CCO3)=NO1 [Compound 2, 6-[[(4,5-dihydro-5,5-dimethyl-3-isoxazolyl)sulfonyl]methyl]-2,3-dihydro-7-(trifluoromethyl)-5H-oxazolo[3,2-α]pyrimidin-5-one] | 20 | 60 | 0 | 0 | 0 | 0 | 0 | 0 | 100 | 100 | 100 | 0 | 75 | 70 | 0 | 0 | – | – | – | – | Plant response rating, Nutsedge, Yellow ([2]; 8 g ai/ha): 0; Plant response rating, Galium ([4]; 8 g ai/ha): 0; Plant response rating, Kochia ([5]; 8 g ai/ha): 0; Plant response rating, Russian Thistle ([6]; 8 g ai/ha): 0; Plant response rating, Russian Thistle ([6]; 16 g ai/ha): 0
2 | CC1(C)CC(S(=O)(=O)Cc2c(C(F)(F)F)nc3n(c2=O)CCC3)=NO1 [Compound 11, 3-[[(4,5-dihydro-5,5-dimethyl-3-isoxazolyl)sulfonyl]methyl]-7,8-dihydro-2-(trifluoromethyl)pyrrolo[1,2-α]pyrimidin-4(6H)-one] | 30 | 100 | 0 | 0 | 0 | 0 | 0 | 20 | 0 | 0 | 95 | – | – | – | – | – | 0 | 50 | 98 | – | –
3 | CC1(C)CC(S(=O)(=O)Cc2c(C(F)(F)C(F)(F)F)nc3n(c2=O)CCCC3)=NO1 [Compound 21] | 0 | 100 | 0 | 20 | 60 | 0 | 0 | 0 | 0 | 0 | 30 | 0 | – | 60 | 60 | 65 | 90 | 0 | 50 | 80 | Plant response rating, Russian Thistle ([6]; 16 g ai/ha): 0; Plant response rating, Russian Thistle ([6]; 125 g ai/ha): 85
4 | CC1(C)CC(S(=O)(=O)Cc2c(C(F)(F)F)nc3ccsn3c2=O)=NO1 [Compound 16] | – | 100 | 0 | 0 | 0 | 0 | 0 | 0 | 0 | 0 | 0 | 0 | 0 | 0 | – | – | 0 | 0 | 70 | 0 | –
5 | CC1(C)CC(S(=O)(=O)Cc2c(C(F)(F)C(F)(F)F)nc3n(c2=O)CCC3)=NO1 [Compound 22] | 10 | 90 | 0 | 10 | 60 | 0 | 0 | 0 | 0 | 0 | 0 | 0 | 0 | 0 | 0 | 30 | 80 | 10 | 0 | 70 | Plant response rating, Russian Thistle ([6]; 125 g ai/ha): 60
6 | CC1(C)CC(S(=O)(=O)Cc2c(C(F)(F)Cl)nc3n(c2=O)CCC3)=NO1 [Compound 18] | 60 | 100 | 0 | 0 | 20 | 0 | 0 | 50 | – | – | 0 | 0 | 0 | 55 | – | – | 45 | – | 0 | 100 | –
